# From PubChem BioAssay AID651717 (Broad Institute, 2012)
# Test system: mESC Bmi1-luciferase reporter, firefly/renilla ratio, 24 h
# Test: Bmi1-luciferase reporter activators in mESC, dose response, esBAF inhibitor project, mouse embryonic stem cells, cherry-pick (AID 651717);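 also: luciferase knocked into Bmi1 locus with EF-1a renilla as cell number control; rising ratio signals esBAF inhibition which derepresses Bmi1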
row,Compound,AC40
1,Cn1cccc1-c1nc2ccc(NC(=O)c3cccs3)cc2[nH]1,11.7 µM
2,O=C(NC1CCCCC1)c1cc(-c2cccc(Cl)c2)on1,6.04 µM
3,COc1ccc(-c2csc(C(O)c3ccccc3)n2)cc1 (configuration not stated),5.06 µM
4,Cc1ccc(NC(=O)Nc2cccc(C)n2)c(C)c1,6.01 µM
5,c1ccc(Oc2cc(-c3ccccc3)ncn2)cc1,2.16 µM
6,Cc1cc(C)c2c(CN(C)Cc3ccccc3)cc(=O)oc2c1,4.9 µM
7,O=c1c2ccccc2sc2ccccc12,2.41 µM
8,CC(c1ccccc1)c1nnc(NC(=O)Nc2ccccc2F)s1 (configuration not stated),6.51 µM
9,Clc1ccc(-c2nc(Cc3ccccc3)no2)cc1,1.85 µM
10,COc1ccc(C)c2sc(=NC(=O)c3cccc(N4C(=O)CCC4=O)c3)n(C)c12,1.81 µM
11,O=C(COc1ccc(/C=N/NC(=O)c2cc3ccccc3o2)cc1Br)Nc1ccccc1,4.24 µM
12,COc1ccccc1C=Cc1ccnc2ccccc12,7.65 µM
13,C=CCNc1oc(-c2ccc(OC)cc2)nc1C#N,3.54 µM
14,Cc1cc(C)c2nc(N3CCCC(C(=O)NC4CCCC4)C3)sc2c1 (configuration not stated),9.66 µM
15,COc1cc(C=O)c(Br)cc1OCc1ccc(C)cc1,4.67 µM
16,O=C1N=C(N2CCCCC2)S/C1=C\c1ccccc1F,2.67 µM
17,COc1ccc(CNC(=O)c2ccc3ccccc3n2)cc1,29.4 µM
18,COc1ccc(-c2noc(CCCC(=O)N3CCN(c4cc(C)ccc4C)CC3)n2)cc1,3.53 µM
19,Cc1ccc(C(=O)Nc2cccc(O)c2)cc1S(=O)(=O)N1CCCCCC1,14.5 µM
20,COc1ccc(CNC(=O)Nc2ccc(C)cc2)cc1,8.63 µM
21,CC(=O)c1ccc(OCc2ccccc2)c(C)c1O,9.35 µM

row,Compound,AC40
1,CCN(CC)c1ccc2cc(C(=O)c3cccs3)c(=O)oc2c1,11.6 µM
2,COc1ccc(-c2cc3ccccc3s2)cc1[C@H]1[C@H]2C=CC[C@@H](C)[C@@H]2C(=O)N1Cc1ccccc1,1.53 µM
3,Fc1ccc(Nc2nnc(-c3ccncc3)s2)cc1Cl,4.42 µM
4,COc1ccc(Nc2ncnc3sc(C)cc23)cc1,5.43 µM
5,Cn1cnc(S(=O)(=O)N2CCCCC2c2cc(C(=O)Nc3ccc(F)c(Cl)c3)no2)c1 (configuration not stated),8.38 µM
6,Cc1csc(=O)n1CC(=O)OCc1cccc2ccccc12,11.4 µM
7,COc1cccc(NC(=O)c2ccnc(N3CCC(C(=O)NCc4ccccc4OC)CC3)c2)c1,8.36 µM
8,COc1ccc(-c2cc(C(=O)Nc3ccc(C(N)=O)cc3)c3ccccc3n2)cc1,4.1 µM
9,Cc1ccc(C(=O)CC(=O)c2ccccc2C)c(O)c1,9.56 µM
10,COc1ccccc1CNc1nc2cc(-c3sccc3C)sc2c(=O)n1C,6.95 µM
11,O=C(CC1CC2CCC1C2)NC1CCCCCCC1 (configuration not stated),9.68 µM
12,c1ccc(-c2ccc(-c3ccccc3)[nH]2)cc1,1.44 µM
13,CN(CCc1ccccn1)C(=O)CCc1nnc(CCCc2ccccc2)o1,4.93 µM
14,COc1ccccc1NC(=O)Nc1nc(CC(=O)Nc2ccc(N(C)C)cc2)cs1,8.78 µM
15,O=c1c2ccccc2nnn1CSc1nnnn1-c1ccccc1,9.13 µM
16,C/C(=N\O)c1ccc2c3ccccc3n(C)c2c1,3.32 µM
17,O=C(Nc1ccc(F)cc1)NC1CCCCCCC1,12 µM
18,O=C(NCc1ccccn1)Nc1ccc(Br)cc1Cl,2.68 µM
19,COC(=O)c1c(-c2ccc(S(C)(=O)=O)cc2)sc2ccc(OC)cc12,0.954 µM
20,CCC1CCCCN1C(=O)c1ccc2nc(Cc3ccc(OC)cc3)oc2c1 (configuration not stated),3.04 µM
21,CC(C)CN1C(=O)c2ccc(C(=O)Nc3nccs3)cc2C1=O,1.98 µM

row,Compound,AC40
1,Cc1c(C(=O)NCc2cccnc2)sc2nc(-c3ccc(F)cc3)cn12,12.2 µM
2,COc1ccc2c(=O)c3ccccc3oc2c1,4.7 µM
3,CCCn1cnc2c(SCCc3ccccc3)nc(N)nc21,7.67 µM
4,CN(Cc1cccnc1)C(=O)c1cc(COc2ccc3c(c2)CCCC3)on1,0.9 µM
5,CN(CC(=O)Nc1ccc(Cl)c(C(F)(F)F)c1)C(=O)CCCNC(=O)c1ccc(Cl)cc1,16.8 µM
6,CC(=O)Oc1ccc2cc(-c3ccccc3)c(=O)oc2c1,4.46 µM
7,COc1ccc2c(=O)c(-c3ccc(OC)c(OC)c3)coc2c1,2.69 µM
8,CN(C)c1ccc(-c2csc(C(O)c3ccc(F)cc3)n2)cc1 (configuration not stated),1.63 µM
9,COc1cccc(OCc2cc(C(=O)N3CCN(C(C)=O)CC3)no2)c1,3.15 µM
10,Oc1[nH]c2ccccc2c1/C=N/c1nccs1,4.59 µM
11,CC(C)NC(=O)CCc1nnc(Cc2cccc(C(F)(F)F)c2)o1,15.3 µM
12,CC(=O)Nc1ccc(-c2nnc(SCC(=O)Nc3ccc4c(c3)oc3ccccc34)n2C)cc1,6.97 µM
13,COc1ccc(OCc2cc(C(=O)NC(C)c3csc(C)n3)no2)c(Cl)c1 (configuration not stated),4.18 µM
14,O=C(Nc1ccc(F)cc1)c1ccccc1F,5.97 µM
15,c1ccc2cc(C3CCCCC3)ncc2c1,4.49 µM
16,CCSc1nnc(Nc2ccccc2)s1,11.1 µM
17,CC(=O)Nc1ccc2nc(SCC(=O)Nc3ccc(N4CCOCC4)c(Cl)c3)sc2c1,3.57 µM
18,Cc1ccc(C(=O)Nc2ccc(Br)c(C(F)(F)F)c2)cc1,1.73 µM
19,COc1ccc(-c2csc(C(C)(O)c3ccccc3)n2)cc1 (configuration not stated),14.9 µM
20,CCCCCCCNC(=O)C1(CC2CC(c3ccccc3)=NO2)CCN(C(=O)OC(C)(C)C)CC1 (configuration not stated),15.4 µM
